We go through 5 compounds from patent publication US20220296566A1, “COMBINATION PRODUCT CONTAINING LIMONOID COMPOUND AND ALPHA-GLUCOSIDASE INHIBITOR” (ZHEJIANG YANGSHENGTANG INSTITUTE OF NATURAL MEDICATION CO., …, priority 2019, published 2022).

What all share (assay type): in vivo
For experiment [1], the system named is db/db mice. Description: Blood glucose in mouse type II diabetes model, db/db mice (Example 4). Conditions: single agent 0.2 g/kg per day by gavage, two weeks, 1 h after last administration, mean ± SD. An excerpt:
(§1) Effects of limonoid compound, acarbose or combination thereof on blood glucose and insulin in mouse type II diabetes model
(§2) In the present embodiment, the limonoid compound was selected from nomilin, deacetylnomilin, nomilin acid, deacetylnomilin acid glycoside, and acarbose single administration group, nomilin single administration group, deacetylnomilin single administration group, nomilin acid single administered group, deacetylnomilin acid glycoside single administration group, and respective combination thereof with acarbose administration groups were set.
Conditions for experimental feeding: as type II diabetes model mice, 6-week-old SPF-grade db/db mice were purchased from the Nanjing Model Biology Institute, and subjected to experimental feeding after 7 days of preliminary feeding. […]
Gavage doses: nomilin at a dose of 0.2 g/kg was gavaged per day for the nomilin group, deacetylnomilin at a dose of 0.2 g/kg was gavaged per day for the deacetylnomilin group, nomilin acid at a dose of 0.2 g/kg was gavaged per day for the nomilin acid group, deacetylnomilin acid glycoside at a dose of 0.2 g/kg was gavaged per day for the deacetylnomilin acid glycoside group, acarbose at a dose of 0.2 g/kg was gavaged per day for the acarbose group, nomilin at a dose of 0.1 g/kg and acarbose at a dose of 0.1 g/kg were simultaneously gavaged per day for the nomilin combination group, nomilin acid at a dose of 0.1 g/kg and acarbose at a dose of 0.1 g/kg were simultaneously gavaged per day for the nomilin acid combination group, deacetylnomilin at a dose of 0.1 g/kg and acarbose at a dose of 0.1 g/kg were simultaneously gavaged per day for the deacetylnomilin combination group, deacetylnomilin acid glycoside at a dose of 0.1 g/kg and acarbose at a dose of 0.1 g/kg were simultaneously gavaged per day for the deacetylnomilin acid glycoside combination group, the gavage volume was 10 mL/kg, and the normal group and the model group were administrated with 10 mL/kg of distilled water. […] The data were expressed as mean and standard deviation. […]

A further experiment deals with STZ mice. Description: Blood glucose in mouse type II diabetes model with pancreatic islet damage and obesity, STZ plus high-fat diet (Example 5). The settings on record: STZ + high-fat diet ICR mice; single agent 0.5 g/kg per day by gavage, two weeks; 1 h after last administration; mean ± SD. The source says: Effects of limonoid compound, acarbose or combination thereof on blood glucose in mouse type II diabetes model with pancreatic islet damage and obesity
In this example, a mouse model of type II diabetes with pancreatic islet damage and obesity was established by multiple modeling ICR mice with a small dose of streptozotocin (STZ), following with continuous high-fat diets (referring to literature: Zhang Jiyuan et al, Study on the effect of three plant extracts on improving glucose and lipid metabolism in type 2 diabetic mice, Food and Machinery, 2016, 32 (12): 142-147). […]
Experimental grouping: 15 male mice were randomly selected as the normal control group, and the remaining mice were subjected to a high-fat diet (high-fat diet formula: cholesterol 1%, egg yolk powder 10%, lard oil 10%, and basic feed 79%, for establishing an obesity mouse model) for consecutive 4 weeks and intraperitoneal injection of STZ at a dose of 35mg/kg for three consecutive days. After one week, the mice were subject to 24 hours of fasting and water deprivation, their fasting blood glucose was measured, and the mice with a blood glucose level of 15 to 25 mmol/L were selected and undifferentiatedly grouped and used in the experiment, continuously subjected to the high-fat diet, 15 mice in each group, and subjected to blood sampling and detection of indicators after 2 weeks of administration. […]

The test system of experiment [2] is db/db mice. As to the kind of experiment: Blood glucose in mouse type II diabetes model, db/db mice (Example 2). Conditions: single agent 0.04 g/kg per day by gavage, two weeks, 1 h after last administration, mean ± SD. An excerpt: (§3) Effects of limonoid compound, acarbose or combination thereof on blood glucose and leptin in mouse type II diabetes model
(§4) In the present example, db/db mice (line name BKS.Cg-Dock7^m+/+Lepr^db/Nju) were used to perform hypoglycemic efficacy evaluation test of animals (blood glucose level and leptin). The limonoid compound was selected from obacunone, isoobacunoic acid and obacunone glycoside, and acarbose single administration group, obacunone single administration group, isoobacunoic acid single administration group, obacunone glycoside single administered group, and respective combination thereof with acarbose administration groups were set.
(§5) Conditions for experimental feeding: as type II diabetes model mice, 6-week-old SPF-grade db/db mice were purchased from the Nanjing Model Biology Institute, and subjected to experimental feeding after 7 days of preliminary feeding. It should be noted that the conditions for raising the mice were as follows: the temperature was 23±1° C., the humidity was 55±10%, the lights were turned on between 7 am and 7 pm (the lights were turned off at other time), and the mice were allowed to freely take in water and feed. […]

For experiment [3], the system named is db/db mice. As to the kind of experiment: Serum leptin by Elisa in db/db mice (Example 2). Conditions: single agent 0.04 g/kg per day by gavage, two weeks, mean ± SD.
Excerpt: as §3, §4, §5

The test system of experiment [4] is db/db mice. As to the kind of experiment: Serum insulin by Elisa in db/db mice (Example 4). Conditions: single agent 0.2 g/kg per day by gavage, two weeks, mean ± SD.
Excerpt: as §1, §2
as §5, with “feed. The experimental feed was mouse growth-stable feed (GB M2118), and the daily feeding and management of the animals were under the responsibility of the animal security department, which provided the animals with sufficient diet and fresh drinking water daily.” for “feed.”

Take `CC1(C)OC(=O)C[C@H](O)[C@]2(C)[C@H]3CC[C@@]4(C)[C@H](c5ccoc5)OC(=O)[C@H]5O[C@]54[C@]3(C)C(=O)C[C@@H]12` [Deacetylnomilin, deacetylnomilin]: the Blood glucose value in the experiment with db/db mice [1] is listed as 11.9 ± 2.9 mmol/L.

For `CC(=O)O[C@@H]1CC(=O)OC(C)(C)[C@@H]2CC(=O)[C@]3(C)[C@H](CC[C@@](C)(C(O[C@@H]4O[C@H](CO)[C@@H](O)[C@H](O)[C@H]4O)c4ccoc4)C34OC4C(=O)O)[C@@]12C` (stereo partly drawn) [Nomilin glycoside, nomilin glycoside], the Blood glucose value in the experiment on STZ mice came out at 12.8 ± 2.9 mmol/L.

For the compound `CC(=O)O[C@H]1CC(=O)OC(C)(C)[C@@H]2CC(=O)[C@]3(C)[C@H](CC[C@@]4(C)[C@H](c5ccoc5)OC(=O)[C@H]5O[C@]543)[C@@]12C` [Nomilin, nomilin], in the experiment with db/db mice [1], the Blood glucose value was 10.1 ± 3.9 mmol/L.

Turning to `CC1(C)OC(=O)C=C[C@]2(C)[C@H]3CC[C@@](C)([C@@H](O[C@@H]4O[C@H](CO)[C@@H](O)[C@H](O)[C@H]4O)c4ccoc4)[C@@]4(O[C@@H]4C(=O)O)[C@]3(C)C(=O)C[C@@H]12` [Obacunone glycoside, obacunone glycoside], in the experiment with db/db mice [2], the Blood glucose value is on record as 13.7 ± 2.9 mmol/L. Further, the Leptin in the experiment with db/db mice [3] came to 28.55 ± 4.00 pg/mL.

Take nomilin acid: the Insulin with db/db mice [4] worked out at 8.08 ± 1.49 pg/mL.
